Laboratory results from US9371342B2, “Isoprene oligomer, polyisoprene, processes for producing these materials, rubber composition, and pneumatic tire” (priority 2010, dated 2016).

Tests used:
Format in all cases: biochemical
[1] = molecular target: T1, Micrococcus luteus B-P 26-derived undecaprenyl diphosphate synthase (wild-type enzyme) (Micrococcus luteus, UniProt O82827); test: Relative activity of wild-type undecaprenyl diphosphate synthase on initiating substrates; settings: activity of the enzyme on farnesyl diphosphate as 100; 12.5 μM initiating substrate, pH 7.5, 1 hour, 37° C.
T1 construct: made in house; host or cells: E. coli; plasmid pET22b/MLU-UPS
T1 sequence (O82827 whole entry): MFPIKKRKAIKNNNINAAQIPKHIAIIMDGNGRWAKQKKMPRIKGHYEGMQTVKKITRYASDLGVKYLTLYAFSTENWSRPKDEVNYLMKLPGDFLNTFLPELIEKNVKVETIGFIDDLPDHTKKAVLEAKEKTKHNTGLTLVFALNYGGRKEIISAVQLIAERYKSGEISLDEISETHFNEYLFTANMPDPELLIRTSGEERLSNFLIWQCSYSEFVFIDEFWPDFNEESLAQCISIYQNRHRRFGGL
Experimental: Reaction was performed under conditions shown below using each of the initiating substrates prepared in Production Examples 1 to 11 or farnesyl diphosphate. The activity of each variant enzyme on each initiating substrate was indicated by index with the activity of the wild-type enzyme (Micrococcus luteus B-P 26-derived undecaprenyl diphosphate synthase) as 100.
After the reaction, liquid scintillation counting and TLC quantification were performed to measure the activity of each enzyme.
Next, reaction was performed under conditions shown below using Micrococcus luteus B-P 26-derived undecaprenyl diphosphate synthase as an enzyme and each of the initiating substrates 1 to 4, the compound represented by the formula (B), the compound represented by the formula (C), the compound represented by the formula (G), the compound represented by the formula (K), and farnesyl diphosphate (FPP). The results were indicated in Table 10 by the relative activity of the enzyme on the initiating substrates 1 to 4, the compound represented by the formula (B), the compound represented by the formula (C), the compound represented by the formula (G), and the compound represented by the formula (K) with the activity of the enzyme on farnesyl diphosphate as 100.
(§1) After the reaction, liquid scintillation counting and TLC quantification were performed to measure the activity of the enzyme on each initiating substrate.

[2] = molecular target: T2, Sulfolobus acidocaldarius-derived geranylgeranyl diphosphate synthase (Sulfolobus acidocaldarius, UniProt P39464); test: Relative activity of geranylgeranyl diphosphate synthase on initiating substrates; settings: 12.5 μM initiating substrate, pH 5.8, 1 hour, 55° C.
T2 construct: made in house; host or cells: E. coli BL21 (DE3)
T2 sequence (P39464 whole entry): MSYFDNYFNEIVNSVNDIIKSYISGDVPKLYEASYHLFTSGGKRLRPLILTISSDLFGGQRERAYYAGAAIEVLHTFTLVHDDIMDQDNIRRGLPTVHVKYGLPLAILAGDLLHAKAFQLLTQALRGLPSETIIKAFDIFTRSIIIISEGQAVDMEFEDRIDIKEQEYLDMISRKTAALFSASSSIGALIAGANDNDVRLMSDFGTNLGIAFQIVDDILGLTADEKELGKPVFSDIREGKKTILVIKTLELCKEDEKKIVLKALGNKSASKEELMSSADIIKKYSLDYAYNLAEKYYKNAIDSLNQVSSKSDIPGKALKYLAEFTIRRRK
Experimental: Likewise, reaction was performed under conditions shown below using Sulfolobus acidocaldarius-derived geranylgeranyl diphosphate synthase and each of the initiating substrates 1 to 4, the compound represented by the formula (B), the compound represented by the formula (C), the compound represented by the formula (G), the compound represented by the formula (K), the compound represented by the formula (F), the compound represented by the formula (I), the compound represented by the formula (Q), farnesyl diphosphate (FPP), and geranyl diphosphate (GPP). The results were indicated in Tables 12 and 13 by the relative activity of the enzyme on the initiating substrates 1 to 4, the compound represented by the formula (B), the compound represented by the formula (C), the compound represented by the formula (G), the compound represented by the formula (K), the compound represented by the formula (F), the compound represented by the formula (I), and the compound represented by the formula (QO) with the activity of the enzyme on farnesyl diphosphate or geranyl diphosphate as 100.
as §1

[3] = molecular target: T3, Bacillus stearothermophilus-derived farnesyl diphosphate synthase (Geobacillus stearothermophilus, UniProt Q08291); test: Relative activity of farnesyl diphosphate synthase on initiating substrates; settings: activity of the enzyme on geranyl diphosphate as 100; 12.5 μM initiating substrate, pH 8.5, 1 hour, 55° C.
T3 construct: made in house; host or cells: E. coli BL21 (DE3)
T3 sequence (Q08291 whole entry): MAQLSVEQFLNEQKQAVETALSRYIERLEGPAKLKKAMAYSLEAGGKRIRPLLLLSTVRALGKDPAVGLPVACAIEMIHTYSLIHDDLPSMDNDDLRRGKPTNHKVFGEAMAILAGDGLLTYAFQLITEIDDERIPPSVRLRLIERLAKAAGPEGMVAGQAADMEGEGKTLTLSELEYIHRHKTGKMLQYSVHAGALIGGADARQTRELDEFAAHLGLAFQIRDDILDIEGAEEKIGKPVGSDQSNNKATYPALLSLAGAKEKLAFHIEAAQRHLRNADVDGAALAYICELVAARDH
Experimental: Reaction was performed under conditions shown below using the obtained Bacillus stearothermophilus-derived farnesyl diphosphate synthase and each of the initiating substrates 1 to 4, the compound represented by the formula (F), the compound represented by the formula (I), the compound represented by the formula (QO), and geranyl diphosphate (GPP) whose structure is shown below. The results were indicated in Table 11 by the relative activity of the enzyme on the initiating substrates 1 to 4, the compound represented by the formula (F), the compound represented by the formula (I), and the compound represented by the formula (Q) with the activity of the enzyme on geranyl diphosphate as 100.
as §1

[4] = activity of the enzyme on farnesyl diphosphate as 100
[5] = activity of the enzyme on geranyl diphosphate as 100

SMILES | Relative activity (%) [1] [%] | Relative activity (%) [2, 4] [%] | Relative activity (%) [2, 5] [%] | Relative activity (%) [3] [%]
CC(C)=CCC/C=C/COP(=O)(O)OP(=O)(O)O [Initiating substrate 2, 7-methyl-octa-2E,6E-dienyl diphosphate] | 0.6 | 2.5 | 0.4 | 3.2
CC(C)=CCC/C(C)=C/CC/C=C/COP(=O)(O)OP(=O)(O)O [Initiating substrate 3, 7,11-dimethyl-dodeca-2E,6E,10E-trienyl diphosphate] | 1.2 | 3.9 | 0.6 | 2.1
